# Laboratory results published in patent US8063055B2, “Substituted pyridone compounds and methods of use” (Amgen Inc., priority 2007, dated 2011).
# Read-outs that look alike come from different tables or passages of the source.
# Columns and labels:
# c-kit kinase enzyme = molecular target: T1, c-kit kinase enzyme (Homo sapiens, UniProt P10721); assay: C-kit Homogeneous Time Resolved Fluorescent (HTRF) kinase assay; format: biochemical
# T1 construct: (catalytic domain, N-terminal GST tagged, unphosphorylated)
# [1] = system: SCF-stimulated UT-7 cells; conditions: Homo sapiens
# Description: SCF and GM-CSF Stimulated UT7 Proliferation/Survival Assay:
# The purpose of this assay is to test the general anti-proliferative/cytotoxic effect of small molecule compounds on SCF or GM-CSF-stimulated UT-7 cells. Preventing SCF stimulated proliferation/survival is consistent with an on-mechanism effect whereas inhibition of GM-CSF driven proliferation/survival is indicative of off-target effects. UT-7 is a factor dependent human megakaryoblastic leukemia cell line that can be grown in either IL-3, GM-CSF, EPO or SCF (these cells have been confirmed to carry wild type c-kit receptor). Cells are maintained in growth media (IMDM, 10% HI-FBS, 1×PGS, 1 ng/mL GM-CSF). […] Small molecule compounds are first diluted in 100% DMSO, then diluted 1:4 in RT assay media. […] The treated cells are incubated in a 37° C. humidified incubator with 5% CO2 for 3 days. The amount of ATP is then measured as a surrogate marker for cell viability. […] The amount of SCF or GM-CSF stimulated viable cells in the presence of compound compared with in the presence of vehicle alone (HI control) is calculated using the formula: % control (POC)=(cpd−average LO)/(average HI−average LO)*100. Data (consisting of POC and inhibitor concentration in μM) is fitted to a 4-parameter equation (y=A+((B−A)/(1+((x/C)^D))), where A is the minimum y (POC) value, B is the maximum y (POC), C is the x (cpd concentration) at the point of inflection and D is the slope factor) using a Levenburg-Marquardt non-linear regression algorithm.
# [2] = HTRF Fret enzyme assay data, c-kit catalytic domain, biotinylated Her-2 peptide substrate, ATP
# [3] = UT7, 72 h, read-out: UT7 Proliferation cell assay data
# [4] = c-kit catalytic domain, biotinylated Her-2 peptide substrate, ATP, read-out: HTRF Fret enzyme assay data
# [5] = UT7, read-out: average IC50 value in the SCF stimulated UT7 proliferation and survival assay
# T1 sequence (P10721 589-937 limits assumed): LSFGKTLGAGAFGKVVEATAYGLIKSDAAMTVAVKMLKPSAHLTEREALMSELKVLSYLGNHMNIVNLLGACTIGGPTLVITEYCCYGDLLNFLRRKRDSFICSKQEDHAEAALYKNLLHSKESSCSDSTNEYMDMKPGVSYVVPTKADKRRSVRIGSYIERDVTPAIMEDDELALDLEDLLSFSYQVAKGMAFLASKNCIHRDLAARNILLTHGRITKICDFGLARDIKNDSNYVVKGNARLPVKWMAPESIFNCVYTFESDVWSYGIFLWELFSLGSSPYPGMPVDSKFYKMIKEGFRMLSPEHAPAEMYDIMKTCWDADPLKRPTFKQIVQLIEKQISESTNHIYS
Structure (SMILES),IC50 (c-kit kinase enzyme; [2]) [nM],"IC50 [1, 3] [nM]",other results
"Cc1ccn(-c2ccc(Cl)c(Cl)c2)c(=O)c1-c1ccc2nc(N)ncc2c1 [Example 40, 3-(2-aminoquinazolin-6-yl)-1-(3,4-dichlorophenyl)-4-methylpyridin-2(1H)-one]",20,18,
"Cc1ccn(-c2ccc(F)c(Cl)c2)c(=O)c1-c1ccc2nc(N)ncc2c1 [Example 45, 3-(2-aminoquinazolin-6-yl)-1-(3-chloro-4-fluorophenyl)-4-methylpyridin-2(1H)-one]",98.9,40,
"Cc1ccn(-c2ccc(C(C)(C)C)cc2)c(=O)c1-c1ccc2nc(N)ncc2c1 [Example 12, 3-(2-amino-6-quinazolinyl)-1-(4-(1,1-dimethylethyl)phenyl)-4-methyl-2(1H)-pyridinone]",2.06,16.5,
"Cc1ccn(-c2ccc(Cl)c(F)c2)c(=O)c1-c1ccc2nc(N)ncc2c1 [Example 44, 3-(2-aminoquinazolin-6-yl)-1-(4-chloro-3-fluorophenyl)-4-methylpyridin-2(1H)-one]",,,IC50 (c-kit kinase enzyme; [4]): 59.7 nM
"Cc1ccn(CC2CCC2)c(=O)c1-c1ccc2nc(N)ncc2c1 [Example 48, 3-(2-aminoquinazolin-6-yl)-1-(cyclobutylmethyl)-4-methylpyridin-2(1H)-one]",1410,,
"Cc1ccn(Cc2ccccc2)c(=O)c1-c1ccc2nc(N)ncc2c1 [Example 24, 3-(2-aminoquinazolin-6-yl)-1-benzyl-4-methylpyridin-2(1H)-one]",6,13,
"Cc1ccn(CCN(C)C)c(=O)c1-c1ccc2nc(N)ncc2c1 [Example 55, 3-(2-aminoquinazolin-6-yl)-1-(2-(dimethylamino)ethyl)-4-methylpyridin-2(1H)-one]",1580,,
"Cc1ccn(-c2ccc(Cl)cc2)c(=O)c1-c1ccc2nc(N)ncc2c1 [Example 32, 3-(2-aminoquinazolin-6-yl)-1-(4-chlorophenyl)-4-methylpyridin-2(1H)-one]",,14,IC50 (c-kit kinase enzyme; [4]): 20 nM
"COc1cccc(-n2ccc(C)c(-c3ccc4nc(N)ncc4c3)c2=O)c1 [Example 22, 3-(2-amino-6-quinazolinyl)-4-methyl-1-(3-(methyloxy)phenyl)-2(1H)-pyridinone]",,27.7,IC50 (c-kit kinase enzyme; [4]): 65.3 nM
"CC(=O)c1ccc(-n2ccc(C)c(-c3ccc4nc(N)ncc4c3)c2=O)cc1 [Example 28, 1-(4-acetylphenyl)-3-(2-aminoquinazolin-6-yl)-4-methylpyridin-2(1H)-one]",,,IC50 (c-kit kinase enzyme; [4]): 20 nM
"Cc1ccn(-c2ccc(F)cc2)c(=O)c1-c1ccc2nc(N)ncc2c1 [Example 33, 3-(2-aminoquinazolin-6-yl)-1-(4-fluorophenyl)-4-methylpyridin-2(1H)-one]",63,107,
"Cc1ccn(-c2ccc(F)c(C(F)(F)F)c2)c(=O)c1-c1ccc2nc(N)ncc2c1 [Example 43, 3-(2-aminoquinazolin-6-yl)-1-(4-fluoro-3-(trifluoromethyl)phenyl)-4-methylpyridin-2(1H)-one]",21.2,41,
"COCCn1ccc(C)c(-c2ccc3nc(N)ncc3c2)c1=O [Example 56, 3-(2-aminoquinazolin-6-yl)-1-(2-methoxyethyl)-4-methylpyridin-2(1H)-one]",2230,,
"Cc1ccc(-n2ccc(C)c(-c3ccc4nc(N)ncc4c3)c2=O)cc1Cl [Example 41, 3-(2-aminoquinazolin-6-yl)-1-(3-chloro-4-methylphenyl)-4-methylpyridin-2(1H)-one]",8.21,12,
"Cc1ccn(-c2cccc(C(F)(F)F)c2)c(=O)c1-c1ccc2nc(N)ncc2c1 [Example 20, 3-(2-amino-6-quinazolinyl)-4-methyl-1-(3-(trifluoromethyl)phenyl)-2(1H)-pyridinone]",,27.9,
"Cc1ccn(-c2ccc3[nH]c(C(F)(F)F)nc3c2)c(=O)c1-c1ccc2nc(N)ncc2c1 [Example 10, 3-(2-aminoquinazolin-6-yl)-4-methyl-1-(2-(trifluoromethyl)-1H-benzo[d]imidazol-5-yl)pyridin-2(1H)-one]",34.8,189,
"CC(C)=CCn1ccc(C)c(-c2ccc3nc(N)ncc3c2)c1=O [Example 54, 3-(2-aminoquinazolin-6-yl)-4-methyl-1-(3-methylbut-2-enyl)pyridin-2(1H)-one]",23.9,12,"IC50 [1, 5]: ≤ 1000 nM"
"Cc1ccn(-c2ccc3ncccc3c2)c(=O)c1-c1ccc2nc(N)ncc2c1 [Example 16, 3-(2-amino-6-quinazolinyl)-4-methyl-1-(6-quinolinyl)-2(1H)-pyridinone]",5.29,56.8,
"Cc1ccn(-c2ccc3[nH]ccc3c2)c(=O)c1-c1ccc2nc(N)ncc2c1 [Example 18, 3-(2-amino-6-quinazolinyl)-4-methyl-1-(1H-indol-5-yl)-2(1H)-pyridinone]",8.65,28.8,
"Cc1ccn(CCC(C)C)c(=O)c1-c1ccc2nc(N)ncc2c1 [Example 25, 3-(2-aminoquinazolin-6-yl)-1-isopentyl-4-methylpyridin-2(1H)-one]",18,84,

Structure (SMILES),IC50 (c-kit kinase enzyme; [2]) [nM],"IC50 [1, 3] [nM]",other results
"COc1ccc(-n2ccc(C)c(-c3ccc4nc(N)ncc4c3)c2=O)cc1 [Example 31, 3-(2-aminoquinazolin-6-yl)-1-(4-methoxyphenyl)-4-methylpyridin-2(1H)-one]",,,IC50 (c-kit kinase enzyme; [4]): 17 nM
"CCOC(=O)CNc1ccc(-n2ccc(C)c(-c3ccc4nc(N)ncc4c3)c2=O)cc1 [Example 37, ethyl 2-(4-(3-(2-aminoquinazolin-6-yl)-4-methyl-2-oxopyridin-1(2H)-yl)phenylamino)acetate]",181,,
"Cc1ccn(CCC2CC2)c(=O)c1-c1ccc2nc(N)ncc2c1 [Example 59, 3-(2-aminoquinazolin-6-yl)-1-(2-cyclopropylethyl)-4-methylpyridin-2(1H)-one]",78.9,28,
"Cc1ccn(-c2ccc(-c3ncco3)cc2)c(=O)c1-c1ccc2nc(N)ncc2c1 [Example 7, 3-(2-aminoquinazolin-6-yl)-4-methyl-1-(4-(oxazol-2-yl)phenyl)pyridin-2(1H)-one]",21.6,15.5,
"Cc1ccn(-c2ccc(CN3CCOCC3)cc2)c(=O)c1-c1ccc2nc(N)ncc2c1 [Example 35, 3-(2-aminoquinazolin-6-yl)-4-methyl-1-(4-(morpholinomethyl)phenyl)pyridin-2(1H)-one]",31,200,
"Cc1ccn(CCn2cccn2)c(=O)c1-c1ccc2nc(N)ncc2c1 [Example 60, 1-(2-(1H-pyrazol-1-yl)ethyl)-3-(2-aminoquinazolin-6-yl)-4-methylpyridin-2(1H)-one]",176,,
"Cc1ccn(-c2ccc(C(F)(F)F)cc2)c(=O)c1-c1ccc2nc(N)ncc2c1 [Example 30, 3-(2-aminoquinazolin-6-yl)-4-methyl-1-(4-(trifluoromethyl)phenyl)pyridin-2(1H)-one]",8,18,
"COc1cc(-n2ccc(C)c(-c3ccc4nc(N)ncc4c3)c2=O)cc(C(F)(F)F)c1 [Example 11, 3-(2-aminoquinazolin-6-yl)-1-(3-methoxy-5-(trifluoromethyl)phenyl)-4-methylpyridin-2(1H)-one]",11.1,58.8,
"Cc1cc(-n2ccc(C)c(-c3ccc4nc(N)ncc4c3)c2=O)ccc1F [Example 42, 3-(2-aminoquinazolin-6-yl)-1-(4-fluoro-3-methylphenyl)-4-methylpyridin-2(1H)-one]",,18,IC50 (c-kit kinase enzyme; [4]): 14 nM
"Cc1ccn(-c2ccc(C(C)C)cc2)c(=O)c1-c1ccc2nc(N)ncc2c1 [Example 27, 3-(2-aminoquinazolin-6-yl)-1-(4-isopropylphenyl)-4-methylpyridin-2(1H)-one]",2,5,
"Cc1cc(C)cc(-n2ccc(C)c(-c3ccc4nc(N)ncc4c3)c2=O)c1 [Example 8, 3-(2-aminoquinazolin-6-yl)-1-(3,5-dimethylphenyl)-4-methylpyridin-2(1H)-one]",16.1,50.1,
"Cc1ccn(CCC2CCCC2)c(=O)c1-c1ccc2nc(N)ncc2c1 [Example 52, 3-(2-aminoquinazolin-6-yl)-1-(2-cyclopentylethyl)-4-methylpyridin-2(1H)-one]",0.818,24,"IC50 [1, 5]: ≤ 1000 nM"
"Cc1ccc(-n2ccc(C)c(-c3ccc4nc(N)ncc4c3)c2=O)cc1C [Example 13, 3-(2-amino-6-quinazolinyl)-1-(3,4-dimethylphenyl)-4-methyl-2(1H)-pyridinone]",3.67,5.4,
"Cc1ccn(CC2CCCCC2)c(=O)c1-c1ccc2nc(N)ncc2c1 [Example 47, 3-(2-aminoquinazolin-6-yl)-1-(cyclohexylmethyl)-4-methylpyridin-2(1H)-one]",132,,
"CCCn1ccc(C)c(-c2ccc3nc(N)ncc3c2)c1=O [Example 50, 3-(2-aminoquinazolin-6-yl)-4-methyl-1-propylpyridin-2(1H)-one]",315,,"IC50 (c-kit kinase enzyme; average IC50 value, inhibition of the c-kit kinase enzyme in a human HTRF assay, 1.0 uM or less): ≤ 1000 nM"
"CCCCn1ccc(C)c(-c2ccc3nc(N)ncc3c2)c1=O [Example 53, 3-(2-aminoquinazolin-6-yl)-1-butyl-4-methylpyridin-2(1H)-one]",118,,
"COC(=O)Cn1ccc(C)c(-c2ccc3nc(N)ncc3c2)c1=O [Example 51, methyl 2-(3-(2-aminoquinazolin-6-yl)-4-methyl-2-oxopyridin-1(2H)-yl)acetate]",1190,,
"Cc1ccn(CC(C)C)c(=O)c1-c1ccc2nc(N)ncc2c1 [Example 49, 3-(2-aminoquinazolin-6-yl)-1-isobutyl-4-methylpyridin-2(1H)-one]",2250,,
"Cc1ccn(-c2ccc(N3CCN(C(=O)OC(C)(C)C)CC3)cc2)c(=O)c1-c1ccc2nc(N)ncc2c1 [Example 36, tert-butyl 4-(4-(3-(2-aminoquinazolin-6-yl)-4-methyl-2-oxopyridin-1(2H)-yl)phenyl)piperazine-1-carboxylate]",1370,,
